# Measurements reported in article PMC11859928, “Design, Synthesis, and Antiproliferative Activity of Novel Indole/1,2,4-Triazole Hybrids as Tubulin Polymerization Inhibitors” (Pharmaceuticals, 2025).
# What was measured:
# SK-MEL-28 = assay: NCI one-dose assay; assay type: cell-based; details: Homo sapiens, SK-MEL-28, Melanoma, read-out: Cell growth inhibition %
# A549/ATCC = assay: NCI one-dose assay; assay type: cell-based; details: Homo sapiens, Non-small cell lung cancer, read-out: Cell growth inhibition %
# SF-268 = assay: NCI one-dose assay; assay type: cell-based; details: Homo sapiens, SF-268, CNS cancer, read-out: Cell growth inhibition %
# EKVX = assay: NCI one-dose assay; assay type: cell-based; details: Homo sapiens, Non-small cell lung cancer, read-out: Cell growth inhibition %
# PC-3 = assay: NCI one-dose assay; assay type: cell-based; details: Homo sapiens, PC-3, Prostate cancer, read-out: Cell growth inhibition %
# NCI-H522 = assay: NCI one-dose assay; assay type: cell-based; details: Homo sapiens, NCI-H522, Non-small cell lung cancer, read-out: Cell growth inhibition %
# OVCAR-3 = assay: NCI one-dose assay; assay type: cell-based; details: Homo sapiens, OVCAR-3, Ovarian cancer, read-out: Cell growth inhibition %
# U251 = assay: NCI one-dose assay; assay type: cell-based; details: Homo sapiens, U-251, U251, CNS cancer, read-out: Cell growth inhibition %
# NCI-H226 = assay: NCI one-dose assay; assay type: cell-based; details: Homo sapiens, NCI-H226, Non-small cell lung cancer, read-out: Cell growth inhibition %
# HL-60(TB) = assay: NCI one-dose assay; assay type: cell-based; details: Homo sapiens, Leukemia, read-out: Cell growth inhibition %
# SF-295 = assay: NCI one-dose assay; assay type: cell-based; details: Homo sapiens, SF-295, CNS cancer, read-out: Cell growth inhibition %
# RXF 393 = assay: NCI one-dose assay; assay type: cell-based; details: Homo sapiens, RXF 393, Renal cancer, read-out: Cell growth inhibition %
# ACHN = assay: NCI one-dose assay; assay type: cell-based; details: Homo sapiens, Renal cancer, read-out: Cell growth inhibition %
# COLO 205 = assay: NCI one-dose assay; assay type: cell-based; details: Homo sapiens, COLO 205, Colon cancer, read-out: Cell growth inhibition %
# RPMI-8226 = assay: NCI one-dose assay; assay type: cell-based; details: Homo sapiens, RPMI-8226, Leukemia, read-out: Cell growth inhibition %
# M14 = assay: NCI one-dose assay; assay type: cell-based; details: Homo sapiens, M14, Melanoma, read-out: Cell growth inhibition %
# NCI-H460 = assay: NCI one-dose assay; assay type: cell-based; details: Homo sapiens, NCI-H460, Non-small cell lung cancer, read-out: Cell growth inhibition %
# MCF7 = assay: NCI one-dose assay; assay type: cell-based; details: Homo sapiens, MCF7, Breast cancer, read-out: Cell growth inhibition %
# NCI-H322M = assay: NCI one-dose assay; assay type: cell-based; details: Homo sapiens, Non-small cell lung cancer, read-out: Cell growth inhibition %
# HOP-92 = assay: NCI one-dose assay; assay type: cell-based, human; details: for inhibition at 10 µM: Homo sapiens, HOP-92, HOP-92, Non-small cell lung cancer, read-out: Cell growth inhibition %
# Description: (§1) The National Cancer Institute (NCI), Bethesda, USA, selected the final compounds 6a–j and 7a–j for in vitro anticancer screening. An initial in vitro single-dose anticancer experiment was performed with the entire NCI 60 cell lines derived from nine tumor subpanel cancer cell lines. The results for each compound were illustrated as a mean graph showing the percentage growth of treated cells compared to untreated control cells (see Supplementary Materials).
# (§2) The NCI anticancer screening process has been thoroughly detailed. The Drug Evaluation Branch of the National Cancer Institute in Bethesda, […], USA, established the procedure and conducted the anticancer assay on 60 human tumor cell lines from nine neoplastic cancers.
# UO-31 = assay: NCI one-dose assay; assay type: cell-based, human; details: for inhibition at 10 µM: Homo sapiens, UO-31, UO-31, Renal cancer, read-out: Cell growth inhibition %; for Cell growth inhibition %: UO-31, Renal cancer, 10 µM
# Description: as §1, §2
# 786-0 = assay: NCI one-dose assay; assay type: cell-based, human; details: Homo sapiens, 786-0, 786-0, Renal cancer, read-out: Cell growth inhibition %
# Description: as §1, §2
# NCI 60 cell lines = assay: NCI one-dose assay, full panel; assay type: cell-based, human; details: across all cell lines, 10 µM
# Description: as §1, §2
SMILES,inhibition at 10 µM (SK-MEL-28) [%],inhibition at 10 µM (A549/ATCC) [%],inhibition at 10 µM (SF-268) [%],inhibition at 10 µM (EKVX) [%],inhibition at 10 µM (PC-3) [%],inhibition at 10 µM (NCI-H522) [%],inhibition at 10 µM (OVCAR-3) [%],inhibition at 10 µM (U251) [%],inhibition at 10 µM (NCI-H226) [%],inhibition at 10 µM (HL-60(TB)) [%],inhibition at 10 µM (SF-295) [%],inhibition at 10 µM (RXF 393) [%],inhibition at 10 µM (ACHN) [%],inhibition at 10 µM (COLO 205) [%],inhibition at 10 µM (RPMI-8226) [%],inhibition at 10 µM (M14) [%],inhibition at 10 µM (NCI-H460) [%],inhibition at 10 µM (MCF7) [%],inhibition at 10 µM (NCI-H322M) [%],inhibition at 10 µM (HOP-92) [%],also measured
"C=CCn1c(SCC(=O)c2ccccc2)nnc1-c1c[nH]c2ccccc12 [Compound 6a, 2-((4-Allyl-5-(1H-indol-3-yl)-4H-1,2,4-triazol-3-yl)thio)-1-phenylethanone]",-5.22,-0.25,-1.91,4.22,10.9,2.25,-14.8,-7.24,12.2,4.39,3.79,-2.2,6.19,-22.1,13.4,2.35,-6.84,2.77,-1.89,18.7,inhibition at 10 µM (UO-31): 35%; Cell growth inhibition % (UO-31): 34.27%; inhibition at 10 µM (786-0): -1.07%
"C=CCn1c(SCC(=O)c2ccc(OC)cc2)nnc1-c1c[nH]c2ccccc12 [Compound 6b, 2-((4-Allyl-5-(1H-indol-3-yl)-4H-1,2,4-triazol-3-yl)thio)-1-(4-methoxyphenyl) Ethenone]",1.56,-8.47,-8.99,3.03,20.3,0.49,-16.9,2.31,7.5,8.98,2.91,-5.88,8.68,2.83,16.8,-1.55,-1.3,5.93,2.42,17.3,anticancer activity (in words) (NCI 60 cell lines): minimal anticancer activity; inhibition at 10 µM (UO-31): 26.9%; inhibition at 10 µM (786-0): -1.31%
"C=CCn1c(SCC(=O)c2ccc(C)cc2)nnc1-c1c[nH]c2ccccc12 [Compound 6c, 2-((4-allyl-5-(1H-indol-3-yl)-4H-1,2,4-triazol-3-yl)thio)-1-(p-tolyl)ethanone]",-4.91,5.97,-3.82,8.94,22.2,4.55,-13.1,6.75,17.1,10.4,3.28,-0.07,11,-25.9,13.8,4.78,1.59,9.88,0.83,50,"Cell growth inhibition % (HOP-92; HOP-92, Non-small cell lung cancer, 10 µM): 49.73%; inhibition at 10 µM (UO-31): 29.7%; inhibition at 10 µM (786-0): 2.26%"
"C=CCn1c(SCC(=O)c2ccc(Br)cc2)nnc1-c1c[nH]c2ccccc12 [Compound 6d, 2-((4-Allyl-5-(1H-indol-3-yl)-4H-1,2,4-triazol-3-yl)thio)-1-(4-bromophenyl)ethenone]",3.9,-3.29,-1.95,7.22,21.7,3.7,-10.4,0.12,9.93,7.71,6.78,-12.8,11.7,-7.53,1.17,2.64,-6.13,2.11,0.55,8.6,anticancer activity (in words) (NCI 60 cell lines): minimal anticancer activity; inhibition at 10 µM (UO-31): 31.6%; inhibition at 10 µM (786-0): 1.44%
"C=CCn1c(SCC(=O)c2ccc(Cl)cc2)nnc1-c1c[nH]c2ccccc12 [Compound 6e, 2-((4-Allyl-5-(1H-indol-3-yl)-4H-1,2,4-triazol-3-yl)thio)-1-(4-chlorophenyl)ethenone]",-10.1,3.63,-4.81,8.21,22.3,7.55,-12.2,3.75,10.3,10.8,3.57,-9.22,7.39,-11.1,7.71,6.76,-3.47,7.08,-2.47,21,anticancer activity (in words) (NCI 60 cell lines): minimal anticancer activity; inhibition at 10 µM (UO-31): 28.5%; inhibition at 10 µM (786-0): 3.55%
"C=CCn1c(SC/C(=N\O)c2ccccc2)nnc1-c1c[nH]c2ccccc12 [Compound 7a, (Z)-2-((4-Allyl-5-(1H-indol-3-yl)-4H-1,2,4-triazol-3-yl)thio)-1-phenylethanone Oxime]",-4.36,-6.67,-7.26,5.6,9.77,4.48,-14.9,4.62,12.1,9.34,12.4,-4.5,3.82,2.04,0.38,-13.4,3.34,-2.96,-0.17,5.05,anticancer activity (in words) (NCI 60 cell lines): minimal anticancer activity; inhibition at 10 µM (UO-31): 20.9%; inhibition at 10 µM (786-0): 4.91%
"C=CCn1c(SC/C(=N\O)c2ccc(C)cc2)nnc1-c1c[nH]c2ccccc12 [Compound 7c, (Z)-2-((4-allyl-5-(1H-indol-3-yl)-4H-1,2,4-triazol-3-yl)thio)-1-(p-tolyl)ethanone Oxime]",-5.62,4.9,3.63,17.7,7.62,14.6,-6.11,-2.94,23.1,10,15.1,-5.46,11.4,-6.48,8.76,5.59,9.2,11.9,5.67,7.98,inhibition at 10 µM (UO-31): 35%; Cell growth inhibition % (UO-31): 34.99%; inhibition at 10 µM (786-0): -2.2%
